Results: article PMC9221546, “New Phenylglycinamide Derivatives with Hybrid Structure as Candidates for New Broad-Spectrum Anticonvulsants” (Cells, 2022)
Like-named read-outs stand apart in the source and are kept apart here.

Legend:
[1] = system: MES-induced seizures in mice; assay: Maximal electroshock seizure (MES) test; assay type: in vivo; conditions: for protection in MES screening / responders at 100 mg/kg: 100 mg/kg i.p., 0.5 h; for protection in MES screening: four mice; for responders at 100 mg/kg: read-out: MES screening: number of mice protected/number of mice tested (converted)
Procedure: (§1) Adult male Albino Swiss mice that weighed between 22 and 26 g were used in the in vivo studies. They were housed under standardized housing conditions in colony cages and had free access to food as well as tap water. The animals were left to adapt under laboratory conditions for 7 days. All procedures involving animals and their care were performed in accordance with the current European Community and Polish legislation on animal experimentation.
(§2) In the initial screening studies, four mice per group were randomly assigned to each experimental group (each mouse was used only once). To evaluate the ED50 or TD50 values, 3–4 groups that consisted of eight animals were injected with various doses of tested compounds. The protective indexes (PIs) for the compounds that were investigated and reference ASDs were calculated by dividing the TD50 value, as determined in the chimney test (or rotarod test), by the respective ED50 value, as determined in the MES, scPTZ, or 6 Hz (32 mA or 44 mA) tests (PI = TD50/ED50). The PIs is a measure of the potential therapeutic window of the tested agent.
(§3) All substances were suspended in Tween 80 (1% aqueous solution) and administered i.p. as a single injection at a dose of 10 mL/kg. On each day of experimentation, fresh solutions were prepared. The results are summarized in Table S1 (screening data) and Table 2 (ED50, TD50, and PI values, see Section 3 Results and Discussion).
(§4) The detailed in vivo procedures are described elsewhere: the maximal electroshock seizure test (MES), the subcutaneous pentylenetetrazole seizure test (scPTZ), the 6 Hz psychomotor seizure model (32 mA and 44 mA), and the chimney test.
(§5) The basic animal seizure models such as the MES, 6 Hz (32 mA or 44 mA), and the scPTZ are still a standard in the discovery and development of new ASDs. In vivo screening approaches enable the identification of compounds with unidentified and potentially novel mechanisms of action besides substances with well-established pharmacodynamics. Bearing in mind the aforementioned facts, compounds 45–66 were initially studied in the MES test and in the 6 Hz seizure model (32 mA) after intraperitoneal (i.p.) administration at a screening dose of 100 mg/kg in mice at a time point of 0.5 h (the screening group consisted of four mice, the results obtained are summarized in Table S1). It should be stressed that the MES test is an experimental model of human tonic–clonic epilepsy as well as partial convulsions with or without secondary generalization, the 6 Hz model (32 mA) corresponds to human focal epilepsy, whereas the scPTZ test relates to human generalized absence or myoclonic seizures.
(§6) We also established the median toxic doses (TD50) in the chimney test 0.5 h post i.p. administration of these compounds. Both the aforementioned parameters enabled the calculation of the protective indexes (PIs).

[2] = system: 6 Hz (32 mA) seizures in mice; assay: 6 Hz (32 mA) psychomotor seizure model; assay type: in vivo
Procedure: as §1, §2, §3, §4, §5, §6

[3] = system: scPTZ-induced seizures in mice; assay: Subcutaneous pentylenetetrazole (scPTZ) seizure test; assay type: in vivo; conditions: 100 mg/kg i.p., 0.5 h
Procedure: as §1, §2, §3, §4, §5

[4] = system: mice; assay: Capsaicin-induced hypothermia model / core body temperature; assay type: in vivo; conditions: compound 60 50 mg/kg, BCTC 20 mg/kg
Procedure: Capsaicin was dissolved in 1% DMSO and administered at a dose of 5 mg/kg at a time point 0 min. Compound 60 and BCTC (positive control) were suspended in 1% Tween 80 and administered 15 min before capsaicin (at time point -15 min). All compounds were injected i.p. at a constant volume of 10 mL/kg. Control animals received the respective vehicles (1% DMSO or 1% Tween 80). Changes in the rectal temperature were measured using an electronic thermometer (ThermoWorks, Alpine, UT, USA) by inserting the rectal probe to a depth of ~2 cm into the rectum of the mouse. The measurements were taken at −15, 0, 15, 30, 60, 90, 120, and 180 min. The differences in the rectal temperature from baseline (time -15 min for groups receiving compound 60 and BCTC in combination with vehicle or time 0 min for groups receiving vehicle and capsaicin or compound 60 and BCTC in combination with capsaicin) to the respective time point ΔT (°C) were then calculated and analyzed. The results are shown in Figure 4 (see Section 3 Results and Discussion).
Figure 4 Effects of compound 60 and BCTC alone (A) or in combination with capsaicin (B) on the core body temperature in mice. Capsaicin (CPS) was injected at 0 min, as indicated by the arrow. Compound 60 or BCTC were administered 15 min prior to CPS injection. The temperature was measured at −15, 0, 15, 30, 60, 90, 120, and 180 min. Since body temperature returned to control values 60 min after CPS injection, subsequent measurements are not shown. Control animals received vehicles (1% DMSO or 1% Tween 80). All the compounds were administered i.p. Each experimental group consisted of seven to eight animals. The data are presented as the mean differences (ΔT) in rectal temperature from baseline (time −15 for A and time 0 for B) to the respective time point. The data were analyzed with one-way ANOVA followed by Tukey’s post hoc test. ** p < 0.01, *** p < 0.001, **** p < 0.0001 vs. the control group; ^#### p < 0.0001 vs. the CPS-treated group.

[5] = system: Na+ channel (site 2); assay: Na+ channel (site 2) radioligand binding; conditions: 100 µM; rat cerebral cortex
[6] = biological target: T1, Calcium Cav1.2 channels (dihydropyridine site) (Homo sapiens, UniProt Q13936); assay: Calcium Cav1.2 channel binding (dihydropyridine site, antagonist radioligand); conditions: 100 µM; human recombinant HEK-293 cell; read-out: % Inhibition of Control Specific Binding, Cav1.2 (dihydropyridine site)
T1 construct: host or cells: HEK-293

[7] = biological target: T2, TRPV1 (VR1) (h) (Homo sapiens, UniProt Q8NER1); assay: TRPV1 (VR1) (h) antagonist effect functional assay; assay type: cell-based; conditions: human recombinant CHO cells, read-out: % Inhibition of control agonist response, TRPV1 (antagonist effect)
T2 construct: host or cells: CHO
Procedure: Binding/functional studies were carried out commercially in Eurofins Laboratories (Poitiers, France) and Eurofins Panlabs Discovery Services Taiwan, Ltd. (New Taipei City, Taiwan) using testing procedures that were reported previously (for details see Table S2).
Table S2. Radioligand binding and functional assays. […]
Assays were performed commercially in Eurofins Laboratories (Poitiers, France) or Eurofins Panlabs Discovery Services Taiwan, Ltd. (New Taipei City, Taiwan).
Table S3. In vitro TRPV1 channel antagonist activity for compounds 45–66 (concentration of 100 µM). […]
Cmpd % Inhibition of control Cmpd % Inhibition of control agonist responsea agonist responsea
*Source: human recombinant CHO cells. a Results showing activity higher than 50% are considered to represent […]
variability of the sign al around the control level. Assays were performed commercially in Eurofins Laboratories

[8] = system: MES-induced seizures in mice; conditions: i.p., pretreatment 1.0 h; cited from earlier work
[9] = system: 6 Hz (32 mA) seizures in mice; conditions: i.p., pretreatment 0.5 h (LEV 1.0 h); cited from earlier work
[10] = Mus musculus, ip, 100 mg/kg i.p., 0.5 h, read-out: 6 Hz (32 mA) screening: number of mice protected/number of mice tested (converted)
[11] = Mus musculus, ip, mice, pretreatment time 0.5 h, (95% confidence limits)
[12] = Mus musculus, ip, 100 mg/kg i.p., 0.5 h, four mice, read-out: protection in 6 Hz (32 mA) screening

T2 sequence (Q8NER1 whole entry): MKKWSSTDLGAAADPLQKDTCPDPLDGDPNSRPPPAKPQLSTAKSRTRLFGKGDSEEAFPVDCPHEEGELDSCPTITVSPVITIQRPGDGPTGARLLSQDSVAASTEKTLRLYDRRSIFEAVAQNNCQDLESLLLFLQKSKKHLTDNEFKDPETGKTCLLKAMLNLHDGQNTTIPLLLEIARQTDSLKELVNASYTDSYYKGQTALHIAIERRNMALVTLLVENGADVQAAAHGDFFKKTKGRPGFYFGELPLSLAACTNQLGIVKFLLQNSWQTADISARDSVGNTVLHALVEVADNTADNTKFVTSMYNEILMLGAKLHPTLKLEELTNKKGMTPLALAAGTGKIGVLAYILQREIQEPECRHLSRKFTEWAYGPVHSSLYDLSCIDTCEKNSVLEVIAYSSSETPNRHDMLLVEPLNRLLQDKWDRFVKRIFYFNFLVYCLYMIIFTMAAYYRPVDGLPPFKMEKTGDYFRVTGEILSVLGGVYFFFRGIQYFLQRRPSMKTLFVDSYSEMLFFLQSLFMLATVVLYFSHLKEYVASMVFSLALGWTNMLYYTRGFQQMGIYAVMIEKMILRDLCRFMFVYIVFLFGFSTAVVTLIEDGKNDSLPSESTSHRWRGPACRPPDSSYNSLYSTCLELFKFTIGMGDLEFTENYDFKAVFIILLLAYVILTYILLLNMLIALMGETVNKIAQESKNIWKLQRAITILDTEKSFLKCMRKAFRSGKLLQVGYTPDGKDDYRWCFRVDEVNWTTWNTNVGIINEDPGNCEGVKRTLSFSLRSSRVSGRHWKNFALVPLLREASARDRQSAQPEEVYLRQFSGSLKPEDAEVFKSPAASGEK
T1 sequence (Q13936 whole entry): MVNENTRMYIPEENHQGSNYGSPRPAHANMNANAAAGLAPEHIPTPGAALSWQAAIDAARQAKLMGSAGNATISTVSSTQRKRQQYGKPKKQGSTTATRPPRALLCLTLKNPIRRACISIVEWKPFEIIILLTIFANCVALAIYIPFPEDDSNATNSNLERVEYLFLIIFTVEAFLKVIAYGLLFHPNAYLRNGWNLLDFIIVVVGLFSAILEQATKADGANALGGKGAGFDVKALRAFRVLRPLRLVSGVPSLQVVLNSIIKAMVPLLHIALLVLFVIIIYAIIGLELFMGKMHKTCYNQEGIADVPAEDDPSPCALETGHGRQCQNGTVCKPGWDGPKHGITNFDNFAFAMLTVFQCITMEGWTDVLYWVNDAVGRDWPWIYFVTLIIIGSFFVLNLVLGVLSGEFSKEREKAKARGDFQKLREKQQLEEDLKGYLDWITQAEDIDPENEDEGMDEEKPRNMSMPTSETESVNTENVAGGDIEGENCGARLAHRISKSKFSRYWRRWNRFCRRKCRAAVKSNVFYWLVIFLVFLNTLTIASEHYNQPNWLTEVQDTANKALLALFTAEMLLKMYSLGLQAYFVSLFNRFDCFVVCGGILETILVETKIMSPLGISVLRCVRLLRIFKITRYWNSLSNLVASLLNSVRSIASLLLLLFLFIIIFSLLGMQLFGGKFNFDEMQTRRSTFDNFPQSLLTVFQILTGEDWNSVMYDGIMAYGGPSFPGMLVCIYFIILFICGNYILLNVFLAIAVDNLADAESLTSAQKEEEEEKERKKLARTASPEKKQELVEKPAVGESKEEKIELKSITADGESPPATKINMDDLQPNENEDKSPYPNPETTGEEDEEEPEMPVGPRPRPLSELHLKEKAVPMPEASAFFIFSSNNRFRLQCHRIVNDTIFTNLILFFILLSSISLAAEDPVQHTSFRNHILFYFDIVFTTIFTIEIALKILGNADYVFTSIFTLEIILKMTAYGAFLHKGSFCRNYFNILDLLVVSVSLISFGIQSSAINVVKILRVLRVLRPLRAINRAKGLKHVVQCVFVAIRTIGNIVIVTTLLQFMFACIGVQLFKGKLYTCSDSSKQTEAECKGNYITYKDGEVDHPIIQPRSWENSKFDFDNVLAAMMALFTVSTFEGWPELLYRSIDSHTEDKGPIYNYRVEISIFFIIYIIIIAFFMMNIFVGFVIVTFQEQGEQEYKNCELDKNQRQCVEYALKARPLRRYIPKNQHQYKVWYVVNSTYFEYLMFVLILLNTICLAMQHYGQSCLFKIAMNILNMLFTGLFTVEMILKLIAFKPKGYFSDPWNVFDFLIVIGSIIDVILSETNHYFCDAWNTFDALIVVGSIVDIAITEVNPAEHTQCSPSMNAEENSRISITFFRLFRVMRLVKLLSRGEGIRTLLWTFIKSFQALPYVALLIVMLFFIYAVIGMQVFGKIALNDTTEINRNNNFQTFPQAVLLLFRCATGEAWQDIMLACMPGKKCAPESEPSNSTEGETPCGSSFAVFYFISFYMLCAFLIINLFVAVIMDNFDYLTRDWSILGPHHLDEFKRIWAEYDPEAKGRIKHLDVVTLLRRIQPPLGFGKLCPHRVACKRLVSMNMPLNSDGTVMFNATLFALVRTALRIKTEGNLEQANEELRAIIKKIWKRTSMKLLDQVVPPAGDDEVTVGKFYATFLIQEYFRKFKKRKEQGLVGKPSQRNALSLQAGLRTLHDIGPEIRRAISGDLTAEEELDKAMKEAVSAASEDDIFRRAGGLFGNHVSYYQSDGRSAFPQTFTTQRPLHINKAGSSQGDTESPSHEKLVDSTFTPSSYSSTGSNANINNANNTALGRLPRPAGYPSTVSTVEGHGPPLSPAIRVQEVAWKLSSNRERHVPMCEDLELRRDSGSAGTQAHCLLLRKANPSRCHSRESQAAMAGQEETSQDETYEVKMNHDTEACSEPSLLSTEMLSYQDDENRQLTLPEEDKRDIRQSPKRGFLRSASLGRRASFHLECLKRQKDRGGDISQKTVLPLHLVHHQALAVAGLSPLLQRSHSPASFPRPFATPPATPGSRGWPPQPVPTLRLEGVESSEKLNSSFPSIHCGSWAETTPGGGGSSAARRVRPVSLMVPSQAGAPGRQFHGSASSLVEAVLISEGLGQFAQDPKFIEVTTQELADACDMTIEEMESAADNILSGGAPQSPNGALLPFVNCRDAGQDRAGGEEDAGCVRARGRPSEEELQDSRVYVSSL
T1 sequence (Q08289 whole entry partner): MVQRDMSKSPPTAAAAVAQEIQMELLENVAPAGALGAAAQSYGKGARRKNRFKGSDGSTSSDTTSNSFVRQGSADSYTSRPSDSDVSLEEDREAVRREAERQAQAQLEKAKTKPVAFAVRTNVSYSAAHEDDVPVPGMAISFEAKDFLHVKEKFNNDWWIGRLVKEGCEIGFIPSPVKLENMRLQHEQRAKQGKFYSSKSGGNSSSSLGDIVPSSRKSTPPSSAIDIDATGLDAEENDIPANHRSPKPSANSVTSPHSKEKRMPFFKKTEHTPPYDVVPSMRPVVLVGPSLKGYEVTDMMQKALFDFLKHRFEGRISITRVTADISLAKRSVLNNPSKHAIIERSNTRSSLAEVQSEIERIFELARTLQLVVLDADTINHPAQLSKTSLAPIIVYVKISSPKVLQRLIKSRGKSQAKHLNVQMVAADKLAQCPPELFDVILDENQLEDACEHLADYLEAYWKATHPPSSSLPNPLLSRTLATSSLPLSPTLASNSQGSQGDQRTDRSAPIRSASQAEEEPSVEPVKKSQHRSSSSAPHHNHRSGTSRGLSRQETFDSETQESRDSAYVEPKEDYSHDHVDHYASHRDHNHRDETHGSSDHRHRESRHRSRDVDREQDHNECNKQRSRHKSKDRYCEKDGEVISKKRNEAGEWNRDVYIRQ
T1 sequence (P54289 25-956 partner limits assumed): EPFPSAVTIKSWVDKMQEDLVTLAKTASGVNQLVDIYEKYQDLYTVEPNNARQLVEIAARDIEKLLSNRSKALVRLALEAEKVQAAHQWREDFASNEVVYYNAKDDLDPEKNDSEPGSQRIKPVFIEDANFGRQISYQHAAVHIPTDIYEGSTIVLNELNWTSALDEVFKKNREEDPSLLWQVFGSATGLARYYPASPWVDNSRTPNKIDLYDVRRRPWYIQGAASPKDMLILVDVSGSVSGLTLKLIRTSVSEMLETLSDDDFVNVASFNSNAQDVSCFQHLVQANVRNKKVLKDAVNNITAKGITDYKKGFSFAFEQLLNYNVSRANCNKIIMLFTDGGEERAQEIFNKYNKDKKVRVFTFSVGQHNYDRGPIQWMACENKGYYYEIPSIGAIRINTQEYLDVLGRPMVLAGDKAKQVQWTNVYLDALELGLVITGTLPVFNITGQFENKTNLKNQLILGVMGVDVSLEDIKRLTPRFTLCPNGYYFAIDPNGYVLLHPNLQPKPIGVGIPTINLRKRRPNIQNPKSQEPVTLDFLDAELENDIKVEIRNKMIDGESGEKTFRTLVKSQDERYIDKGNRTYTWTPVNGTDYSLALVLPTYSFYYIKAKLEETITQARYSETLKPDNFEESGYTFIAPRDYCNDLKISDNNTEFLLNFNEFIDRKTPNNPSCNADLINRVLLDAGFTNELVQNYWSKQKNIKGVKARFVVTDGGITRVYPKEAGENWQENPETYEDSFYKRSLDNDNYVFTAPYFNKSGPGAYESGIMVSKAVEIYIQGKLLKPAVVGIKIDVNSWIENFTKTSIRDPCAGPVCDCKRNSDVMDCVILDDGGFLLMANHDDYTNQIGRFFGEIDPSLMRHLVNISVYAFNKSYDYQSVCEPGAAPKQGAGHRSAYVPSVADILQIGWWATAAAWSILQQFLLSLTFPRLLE
T1 sequence (P54289 957-1103 partner limits assumed): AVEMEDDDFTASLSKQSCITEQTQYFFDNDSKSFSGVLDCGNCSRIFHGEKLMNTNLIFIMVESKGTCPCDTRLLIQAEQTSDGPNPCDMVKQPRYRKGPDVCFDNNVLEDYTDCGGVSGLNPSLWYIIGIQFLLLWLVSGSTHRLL

SMILES: CC(C)(C)c1ccc(NC(=O)N2CCN(c3ncccc3Cl)CC2)cc1 [BCTC, N-(4-Tertiarybutylphenyl)-4-(3-Chloropyridin-2-Yl)Tetrahydropyrazine-1(2H)-Carbox-Amide, reference compound]
- protection in MES screening [1]: ineffective
- responders at 100 mg/kg ([1]; Mus musculus, ip): 0%
- protection in 6 Hz (32 mA) screening ([2]; 100 mg/kg i.p., 0.5 h, four mice): ineffective
- responders at 100 mg/kg [2, 10]: 0%
- scPTZ screening: number of mice protected/number of mice tested [3]: 0/4
- protection in scPTZ screening ([3]; four mice): ineffective
- effect on capsaicin-induced hypothermia (co-administration) ([4]; i.p. 15 min before capsaicin 5 mg/kg): prevented the capsaicin-evoked decrease in body temperature

SMILES: C=C(C)[C@@H]1CCC(C)=C[C@H]1c1c(O)cc(CCCCC)cc1O [CBD, cannabidiol, reference compound]
- % Inhibition of Control Specific Binding, Na+ channel (site 2) [5]: 94.8 (100) %
- inhibition at 100 µM [6]: 58%
- inhibition at 100 µM [7]: 48%
- ED50 MES [8]: 80.0 (65.5−96.0) mg/kg

SMILES: CC(=O)NC(C(=O)N1CCN(c2cc(Cl)cc(Cl)c2)CC1)c1ccccc1 (stereo not drawn) [Compound 50, N-(2-(4-(3,5-dichlorophenyl)piperazin-1-yl)-2-oxo-1-phenylethyl)acetamide]
- responders at 100 mg/kg ([1]; Mus musculus, ip): 0%
- responders at 100 mg/kg [2, 10]: 25%
- inhibition at 100 µM [7]: 128%
- melting point: 185.9 to 187.3 °C

SMILES: CC(=O)NC(C(=O)N1CCN(c2cc(C(F)(F)F)cc(C(F)(F)F)c2)CC1)c1ccccc1 (stereo not drawn) [Compound 55, N-(2-(4-(3,5-bis(trifluoromethyl)phenyl)piperazin-1-yl)-2-oxo-1-phenylethyl)acetamide]
- responders at 100 mg/kg ([1]; Mus musculus, ip): 0%
- responders at 100 mg/kg [2, 10]: 25%
- inhibition at 100 µM [7]: -14%
- melting point: 194.2 to 195.4 °C

SMILES: CC(=O)NC(C(=O)N1CCN(c2cc(C(F)(F)F)ccn2)CC1)c1ccccc1 (stereo not drawn) [Compound 64, N-(2-oxo-1-phenyl-2-(4-(4-(trifluoromethyl)pyridine-2-yl)piperazin-1-yl)ethyl)acetamide]
- responders at 100 mg/kg ([1]; Mus musculus, ip): 0%
- responders at 100 mg/kg [2, 10]: 25%
- inhibition at 100 µM [7]: 39.7%
- melting point: 91.4 to 92.3 °C

SMILES: CC(=O)NC(C(=O)N1CCN(c2ccc(C(F)(F)F)cn2)CC1)c1ccccc1 (stereo not drawn) [Compound 65, N-(2-oxo-1-phenyl-2-(4-(5-(trifluoromethyl)pyridine-2-yl)piperazin-1-yl)ethyl)acetamide]
- protection in MES screening [1]: 75%
- responders at 100 mg/kg ([1]; Mus musculus, ip): 75%
- ED50 [1, 11]: > 100 mg/kg
- responders at 100 mg/kg [2, 12]: 75%
- responders at 100 mg/kg [2, 10]: 75%
- ED50 [2, 11]: 64.9 mg/kg
- scPTZ screening: number of mice protected/number of mice tested [3]: 0/4
- inhibition at 100 µM [7]: 8.5%
- melting point: 91.2 to 92.4 °C

SMILES: CC(=O)NC(C(=O)N1CCN(c2cccc(C(F)(F)F)n2)CC1)c1ccccc1 (stereo not drawn) [Compound 66, N-(2-oxo-1-phenyl-2-(4-(6-(trifluoromethyl)pyridine-2-yl)piperazin-1-yl)ethyl)acetamide]
- responders at 100 mg/kg ([1]; Mus musculus, ip): 0%
- responders at 100 mg/kg [2, 12]: 50%
- responders at 100 mg/kg [2, 10]: 50%
- inhibition at 100 µM [7]: 3.7%
- melting point: 151.6 to 152.3 °C

SMILES: CCCC(CCC)C(=O)O [VPA, Valproic acid]
- ED50 6 Hz (32 mA) [9]: 130.6 (117.6−145.2) mg/kg

SMILES: COc1cc(CNC(=O)CCCC/C=C/C(C)C)ccc1O [capsaicin]
- effect on rectal (core body) temperature, given alone ([4]; i.p., capsaicin 5 mg/kg): produced a significant drop in the rectal temperature
